From US5593984A, “Cephalosporin derivatives” (Yuhan Corporation, priority 1992, dated 1997)
Values after ≈ are worked out from the molar mass of the structure shown.

Columns and labels:
Format in all cases: cell-based
Staph. aureus C-5216 = experiment: MIC by agar dilution, Staph. aureus C-5216; conditions: Staphylococcus aureus, C5216, 17 h, Mueller-Hinton agar, read-out: Minimal Inhibitory Concentration (MIC)
Outline: (§1)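 Following inoculation at 10^6 CFU per ml onto agar containing two-fold compound dilutions, plates were incubated 17±1 hours at 35°-37° C.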

[1] = tested on: Ser. marcescens IFO 12648; experiment: MIC by agar dilution, Ser. marcescens IFO 12648; conditions: Serratia marcescens, IFO12648, 17 h; Ser. marcescens IFO 12648; agar dilution, Mueller-Hinton agar; read-out: Minimal Inhibitory Concentration (MIC)
Outline: as §1

Staph. aureus ATCC 6538P = experiment: MIC by agar dilution, Staph. aureus ATCC 6538P; conditions: Staphylococcus aureus, ATCC6538P, 17 h; Staph. aureus ATCC 6538P; agar dilution, Mueller-Hinton agar; read-out: Minimal Inhibitory Concentration (MIC)
Outline: as §1

M. morganii DY-1 = experiment: MIC by agar dilution, M. morganii DY-1; conditions: Morganella morganii, DY1, 17 h; M. morganii DY-1; agar dilution, Mueller-Hinton agar; read-out: Minimal Inhibitory Concentration (MIC)
Outline: as §1

Ps. aeruginosa DY-2 = experiment: MIC by agar dilution, Ps. aeruginosa DY-2; conditions: Pseudomonas aeruginosa, DY2, 17 h; Ps. aeruginosa DY-2; agar dilution, Mueller-Hinton agar; read-out: Minimal Inhibitory Concentration (MIC)
Outline: as §1

B. subtilis ATCC 6633 = experiment: MIC by agar dilution, B. subtilis ATCC 6633; conditions: Bacillus subtilis, ATCC6633, 17 h; B. subtilis ATCC 6633; agar dilution, Mueller-Hinton agar; read-out: Minimal Inhibitory Concentration (MIC)
Outline: as §1

E. coli DY-1 = experiment: MIC by agar dilution, E. coli DY-1; conditions: Escherichia coli, DY1, 17 h; E. coli DY-1; agar dilution, Mueller-Hinton agar; read-out: Minimal Inhibitory Concentration (MIC)
Outline: as §1

[2] = tested on: Ps. aeruginosa NCTC 10490; experiment: MIC by agar dilution, Ps. aeruginosa NCTC 10490; conditions: Pseudomonas aeruginosa, NCTC10490, 17 h, Mueller-Hinton agar, read-out: Minimal Inhibitory Concentration (MIC)
Outline: as §1

E. coli NIHJ JC-2 = experiment: MIC by agar dilution, E. coli NIHJ JC-2; conditions: Escherichia coli, NIHJJC2, 17 h; E. coli NIHJ JC-2; agar dilution, Mueller-Hinton agar; read-out: Minimal Inhibitory Concentration (MIC)
Outline: as §1

Staph. aureus C-5113 = experiment: MIC by agar dilution, Staph. aureus C-5113; conditions: Staphylococcus aureus, C5113, 17 h, Mueller-Hinton agar, read-out: Minimal Inhibitory Concentration (MIC)
Outline: as §1

P. vulgaris NCTC 8313 = experiment: MIC by agar dilution, P. vulgaris NCTC 8313; conditions: Proteus vulgaris, NCTC8313, 17 h; P. vulgaris NCTC 8313; agar dilution, Mueller-Hinton agar; read-out: Minimal Inhibitory Concentration (MIC)
Outline: as §1

Ent. aerogenes IFO 12979 = experiment: MIC by agar dilution, Ent. aerogenes IFO 12979; conditions: Klebsiella aerogenes, IFO12979, 17 h, Mueller-Hinton agar, read-out: Minimal Inhibitory Concentration (MIC)
Outline: as §1

K. pneumoniae NCTC 9632 = experiment: MIC by agar dilution, K. pneumoniae NCTC 9632; conditions: Klebsiella pneumoniae, NCTC9632, 17 h; K. pneumoniae NCTC 9632; agar dilution, Mueller-Hinton agar; read-out: Minimal Inhibitory Concentration (MIC)
Outline: as §1

Staph. aureus Smith = experiment: MIC by agar dilution, Staph. aureus Smith; conditions: Staphylococcus aureus, 17 h, Mueller-Hinton agar, read-out: Minimal Inhibitory Concentration (MIC)
Outline: as §1

Prov. stuartii IFO 12930 = experiment: MIC by agar dilution, Prov. stuartii IFO 12930; conditions: Providencia stuartii, IFO12930, 17 h, Mueller-Hinton agar, read-out: Minimal Inhibitory Concentration (MIC)
Outline: as §1

Staph. aureus C-57 = experiment: MIC by agar dilution, Staph. aureus C-57; conditions: Staphylococcus aureus, C57, 17 h, Mueller-Hinton agar, read-out: Minimal Inhibitory Concentration (MIC)
Outline: as §1

E. coli No. 29 = experiment: MIC by agar dilution, E. coli No. 29; conditions: Escherichia coli, 17 h; E. coli No. 29; agar dilution, Mueller-Hinton agar; read-out: Minimal Inhibitory Concentration (MIC)
Outline: as §1

[3] = tested on: S. epidermidis ATCC 12228; experiment: MIC by agar dilution, S. epidermidis ATCC 12228; conditions: Staphylococcus epidermidis, ATCC12228, 17 h; S. epidermidis ATCC 12228; agar dilution, Mueller-Hinton agar; read-out: Minimal Inhibitory Concentration (MIC)
Outline: as §1

[4] = tested on: Ps. aeruginosa ATCC 10145; experiment: MIC by agar dilution, Ps. aeruginosa ATCC 10145; conditions: Pseudomonas aeruginosa, ATCC10145, 17 h, Mueller-Hinton agar, read-out: Minimal Inhibitory Concentration (MIC)
Outline: as §1

Ent. cloacae IFO 13535 = experiment: MIC by agar dilution, Ent. cloacae IFO 13535; conditions: Enterobacter cloacae, IFO13535, 17 h; Ent. cloacae IFO 13535; agar dilution, Mueller-Hinton agar; read-out: Minimal Inhibitory Concentration (MIC)
Outline: as §1

MIC (Staph. aureus C-5216) [µg/mL]	MIC [1] [µg/mL]	MIC (Staph. aureus ATCC 6538P) [µg/mL]	MIC (M. morganii DY-1) [µg/mL]	MIC (Ps. aeruginosa DY-2) [µg/mL]	MIC (B. subtilis ATCC 6633) [µg/mL]	MIC (E. coli DY-1) [µg/mL]	MIC [2] [µg/mL]	MIC (E. coli NIHJ JC-2) [µg/mL]	MIC (Staph. aureus C-5113) [µg/mL]	MIC (P. vulgaris NCTC 8313) [µg/mL]	MIC (Ent. aerogenes IFO 12979) [µg/mL]	MIC (K. pneumoniae NCTC 9632) [µg/mL]	MIC (Staph. aureus Smith) [µg/mL]	MIC (Prov. stuartii IFO 12930) [µg/mL]	MIC (Staph. aureus C-57) [µg/mL]	MIC (E. coli No. 29) [µg/mL]	MIC [3] [µg/mL]	MIC [4] [µg/mL]	MIC (Ent. cloacae IFO 13535) [µg/mL]	Structure (SMILES)
0.78 (≈ 1.32 µM)	0.05 (≈ 0.0847 µM)	0.78 (≈ 1.32 µM)	0.05 (≈ 0.0847 µM)	25 (≈ 42.4 µM)	0.39 (≈ 0.661 µM)	0.025 (≈ 0.0424 µM)	3.13 (≈ 5.3 µM)	0.05 (≈ 0.0847 µM)	0.78 (≈ 1.32 µM)	0.012 (≈ 0.0203 µM)	0.025 (≈ 0.0424 µM)	0.025 (≈ 0.0424 µM)	1.56 (≈ 2.64 µM)	0.025 (≈ 0.0424 µM)	25 (≈ 42.4 µM)	0.025 (≈ 0.0424 µM)	0.1 (≈ 0.169 µM)	6.25 (≈ 10.6 µM)	0.1 (≈ 0.169 µM)	CO/N=C(\C(=O)N[C@@H]1C(=O)N2C(C(=O)[O-])=C(C[n+]3ccn4c(C(C)=O)cc(Cl)c4c3)CS[C@H]12)c1csc(N)n1 [Ex. 34, 7-β-[(Z)-2-(2-aminothiazol-4-yl)2-methoxyiminoacetamido]-3-(6-acetyl-8-chloropyrrolo[1,2-a]pyrazinium-2-yl)methyl-3-cephem-4-carboxylate]
1.56 (≈ 2.58 µM)	0.2 (≈ 0.331 µM)	1.56 (≈ 2.58 µM)	0.2 (≈ 0.331 µM)	25 (≈ 41.4 µM)	0.39 (≈ 0.646 µM)	0.025 (≈ 0.0414 µM)	3.13 (≈ 5.18 µM)	0.1 (≈ 0.166 µM)	1.56 (≈ 2.58 µM)	0.012 (≈ 0.0199 µM)	0.05 (≈ 0.0828 µM)	0.1 (≈ 0.166 µM)	1.56 (≈ 2.58 µM)	0.1 (≈ 0.166 µM)	25 (≈ 41.4 µM)	0.05 (≈ 0.0828 µM)	0.1 (≈ 0.166 µM)	6.25 (≈ 10.3 µM)	0.39 (≈ 0.646 µM)	CCO/N=C(\C(=O)N[C@@H]1C(=O)N2C(C(=O)[O-])=C(C[n+]3ccn4c(C(C)=O)cc(Cl)c4c3)CS[C@H]12)c1csc(N)n1 [Ex. 35, 7-β-[(Z)-2-(2-aminothiazol-4-yl)-2-ethoxyiminoacetamido]-3-(6-acetyl-8-chloropyrrolo[1,2-a]pyrazinium-2-yl)methyl-3-cephem-4-carboxylate]
6.25 (≈ 10.5 µM)	0.78 (≈ 1.3 µM)	0.39 (≈ 0.652 µM)	1.56 (≈ 2.61 µM)	100 (≈ 167 µM)	0.2 (≈ 0.335 µM)	0.1 (≈ 0.167 µM)	25 (≈ 41.8 µM)	0.78 (≈ 1.3 µM)	1.56 (≈ 2.61 µM)	0.05 (≈ 0.0837 µM)	0.2 (≈ 0.335 µM)	0.78 (≈ 1.3 µM)	3.13 (≈ 5.24 µM)	0.2 (≈ 0.335 µM)	100 (≈ 167 µM)	0.2 (≈ 0.335 µM)	0.2 (≈ 0.335 µM)	50 (≈ 83.7 µM)	3.13 (≈ 5.24 µM)	CO/N=C(\C(=O)N[C@@H]1C(=O)N2C(C(=O)[O-])=C(C[n+]3ccn4c(C(C)C)cc(C(C)C)c4c3)CS[C@H]12)c1csc(N)n1 [Ex. 36, 7-β-[(Z)-2-(2-aminothiazol-4-yl)-2-methoxyiminoacetamido]-3-(6,8-diisopropyl-pyrrolo[1,2-a]pyrazinium-2-yl)methyl-3-cephem-4-carboxylate]
0.78 (≈ 1.44 µM)	0.012 (≈ 0.0222 µM)	0.1 (≈ 0.185 µM)	0.025 (≈ 0.0462 µM)	6.25 (≈ 11.5 µM)	0.2 (≈ 0.369 µM)	≤ 0.006	0.78 (≈ 1.44 µM)	0.012 (≈ 0.0222 µM)	1.56 (≈ 2.88 µM)	0.012 (≈ 0.0222 µM)	0.012 (≈ 0.0222 µM)	0.012 (≈ 0.0222 µM)	0.2 (≈ 0.369 µM)	0.012 (≈ 0.0222 µM)	25 (≈ 46.2 µM)	≤ 0.006	0.2 (≈ 0.369 µM)	3.13 (≈ 5.78 µM)	0.2 (≈ 0.369 µM)	CCc1c[n+](CC2=C(C(=O)[O-])N3C(=O)[C@@H](NC(=O)/C(=N\OC)c4csc(N)n4)[C@H]3SC2)cc2cccn12 [Ex. 37, 7-β-[(Z)-2-(2-aminothiazol-4-yl)-2-methoxyiminoacetamido]-3-(4-ethylpyrrolo[1,2-a]pyrazinium-2-yl)methyl-3-cephem-4-carboxylate]
